Data set [1] concerns A549. As to the kind of experiment: Induction of cell cycle arrest in human A549 cells assessed as accumulation of cells at G2/M phase at 3 uM by FACS analysis ( Rvb = 9.35%). Type of data set: functional.
Data set [2] has as its system A549. The data set can be described thus: Induction of cell cycle arrest in human A549 cells assessed as accumulation of cells at G2/M phase at 6 uM by FACS analysis ( Rvb = 9.35%). Type of data set: functional. For orientation: Flow cytometry measures light scatter and fluorescence of single cells or particles in a stream.
For another data set, the system named is HepG2. The data set can be described thus: Antiproliferative activity against human HepG2 cells assessed as inhibition of cell growth by MTT assay. Type of data set: functional, cell-based. Background: Tetrazolium dyes change colour on reduction, which living cells bring about.
Data set [3] in a line: Cytotoxicity against human L02 cells assessed as inhibition of cell growth by MTT assay. Type of data set: toxicity, cell-based.
For data set [4], the system named is A549. The data set can be described thus: Induction of apoptosis in human A549 cells assessed as increase in apoptotic cells at 1.5 uM incubated for 48 hrs by Annexin V-FITC/PI staining analysis relative to control. Type of data set: functional.
For data set [5], the system named is A549. The data set can be described thus: Induction of cell cycle arrest in human A549 cells assessed as accumulation of cells at G0/G1 phase at 6 uM by FACS analysis ( Rvb = 49.93%). Type of data set: functional.
In data set [6] the test system is A549. The data set can be described thus: Inhibition of PI3K signalling pathway in human […] cells assessed as decrease in phosphorylated AKT level by Western blot assay. To be noted: dose 1.5-6 µM. Type of data set: cell-based.
Data set [7] concerns A549. As to the kind of experiment: Induction of cell cycle arrest in human A549 cells assessed as accumulation of cells at G0/G1 phase at 1.5 uM by FACS analysis ( Rvb = 49.93%). Type of data set: functional.
In data set [8] the test system is A549. As to the kind of experiment: Induction of cell cycle arrest in human A549 cells assessed as accumulation of cells at S phase at 1.5 uM by FACS analysis ( Rvb = 40.71%). Type of data set: functional.
In another data set the test system is HCT-116. As to the kind of experiment: Antiproliferative activity against human HCT-116 cells assessed as inhibition of cell growth by MTT assay. Type of data set: functional, cell-based.
Data set [9] relates to A549. As to the kind of experiment: Antiproliferative activity against human A549 cells assessed as inhibition of cell growth by MTT assay. Type of data set: functional, cell-based.
Data set [10] concerns A549. The data set can be described thus: Induction of apoptosis in human A549 cells assessed as increase in apoptotic cells at 6 uM incubated for 48 hrs by Annexin V-FITC/PI staining analysis relative to control. Type of data set: functional.
The test system of the next data set is MCF7. The data set can be described thus: Antiproliferative activity against human MCF7 cells assessed as inhibition of cell growth by MTT assay. Type of data set: functional, cell-based.
Another data set relates to SiHa. The data set can be described thus: Antiproliferative activity against human SiHa cells assessed as inhibition of cell growth by MTT assay. Type of data set: functional, cell-based.
Data set [11] concerns A549. As to the kind of experiment: Induction of cell cycle arrest in human A549 cells assessed as accumulation of cells at S phase at 3 uM by FACS analysis ( Rvb = 40.71%). Type of data set: functional.
In data set [12] the test system is A549. As to the kind of experiment: Inhibition of PI3K signalling pathway in human […] cells assessed as decrease in phosphorylated PI3K level by Western blot assay. Type of data set: cell-based. To be noted: dose 1.5-6 µM.
Another data set relates to PC-3. As to the kind of experiment: Antiproliferative activity against human PC-3 cells assessed as inhibition of cell growth by MTT assay. Type of data set: functional, cell-based.
The test system of data set [13] is A549. The data set can be described thus: Induction of cell cycle arrest in human A549 cells assessed as accumulation of cells at G2/M phase at 1.5 uM by FACS analysis ( Rvb = 9.35%). Type of data set: functional.
For data set [14], the system named is A549. As to the kind of experiment: Induction of apoptosis in human A549 cells assessed as increase in apoptotic cells at 3 uM incubated for 48 hrs by Annexin V-FITC/PI staining analysis relative to control. Type of data set: functional.
The test system of data set [15] is A549. As to the kind of experiment: Induction of cell cycle arrest in human A549 cells assessed as accumulation of cells at S phase at 6 uM by FACS analysis ( Rvb = 40.71%). Type of data set: functional.
The subject of data set [16] is A549. As to the kind of experiment: Induction of cell cycle arrest in human A549 cells assessed as accumulation of cells at G0/G1 phase at 3 uM by FACS analysis ( Rvb = 49.93%). Type of data set: functional.

Each structure is given as a SMILES string.

For `COc1cc2nc(-c3cc(OC)c(OC)cc3OC)[nH]c2cc1C#Cc1ccccc1F`, the Activity with A549 [1] is 7.83%; with A549 [2], 6.64%; in the data set on A549 [4], 28.97%; with A549 [5], 60.61%; in the data set on A549 [7] it was 54.14%; in the data set on A549 [8], 37.71%. Moreover, the Activity in the data set with A549 [10] is 63.1%; with A549 [11] it was 37.22%; in the data set on A549 [13], 8.15%; in the data set on A549 [14], 61.73%; with A549 [15] it was 32.41%; with A549 [16], 54.95%. Further, the IC50 is 88.7 µM with HepG2; 41.5 µM in data set [3]; 1.68 µM in the data set with HCT-116; 1.55 µM in the data set with A549 [9]; 2.01 µM in the data set with MCF7; 9.36 µM with SiHa. Also, the IC50 in the data set with PC-3 stood at 25.5 µM. The inhibition result with A549 [6] and with A549 [12] was “Dose-Dependent Effect” each time.
With `Nc1cc(C(F)(F)F)c(-c2cc(N3CCOCC3)nc(N3CCOCC3)n2)cn1` [BUPARLISIB], the Activity in the data set on A549 [1] was determined as 36.68%; in the data set with A549 [11] it was 27.99%; with A549 [16], 35.32%. Besides, the IC50 in the data set with HepG2 stood at 23.6 µM; with HCT-116, 3.73 µM; in the data set with A549 [9] it was 9.75 µM; in the data set with MCF7, 16.4 µM; in the data set with SiHa it was 7.18 µM; in the data set with PC-3 it was 12.1 µM.
Consider `COc1ccc(C#Cc2cc3[nH]c(-c4ccc(OC)c(OC)c4OC)nc3cc2OC)cc1`, for which the IC50 with HepG2 is 94.8 µM; with HCT-116, > 100 µM; in the data set on A549 [9], > 100 µM; with MCF7, > 100 µM; in the data set with SiHa it was > 100 µM; in the data set on PC-3, > 100 µM.
For `COc1cc2nc(-c3ccc(OC)c(OC)c3OC)[nH]c2cc1/C=C/C(=O)NC(C)C`, the IC50 was 36.8 µM in the data set with HepG2; 38.4 µM with HCT-116; 85.4 µM in the data set on A549 [9]; > 100 µM in the data set with MCF7; 72.3 µM in the data set with SiHa; 46 µM in the data set with PC-3.
In the case of `COc1cc2nc(-c3ccc(OC)c(OC)c3OC)[nH]c2cc1/C=C/C(N)=O`, the IC50 with HepG2, in the data set with HCT-116, in the data set with A549 [9], in the data set with MCF7, in the data set with SiHa and with PC-3 was > 100 µM in each case.
Consider `COc1ccc(C#Cc2cc3[nH]c(-c4cc(OC)c(OC)cc4OC)nc3cc2OC)cc1`, for which the IC50 with HepG2 is 88.7 µM; in the data set on HCT-116 it was 3.02 µM; in the data set on A549 [9], 9.7 µM; in the data set with MCF7, 7.14 µM; in the data set on SiHa, 33.4 µM; in the data set with PC-3, 20.2 µM.
`COc1cc2nc(-c3cc(OC)c(OC)cc3OC)[nH]c2cc1/C=C/C(=O)NCCO`: the IC50 in the data set on HepG2, in the data set with HCT-116, with A549 [9], with MCF7, in the data set with SiHa and with PC-3 was > 100 µM each time.
As to `COc1cc2nc(-c3cc(OC)c(OC)cc3OC)[nH]c2cc1/C=C(\C)C(N)=O`, the IC50 in the data set with HepG2 stood at 61 µM; with HCT-116, 32.9 µM; in the data set on A549 [9], 73.4 µM; in the data set on MCF7, 57.3 µM; in the data set on SiHa, 33.5 µM; in the data set with PC-3 it was 22.1 µM.
Consider `COc1cc2nc(-c3ccc(OC)c(OC)c3OC)[nH]c2cc1/C=C(\C)C(N)=O`, for which the IC50 with HepG2 is > 100 µM; in the data set on HCT-116 it was > 100 µM; with A549 [9] it was > 100 µM; in the data set on MCF7, > 100 µM; with SiHa it was > 100 µM; in the data set on PC-3 it was 90.8 µM.
`COc1cc2nc(-c3cc(OC)c(OC)cc3OC)[nH]c2cc1C#Cc1ccccc1Cl`: the IC50 was 23.3 µM in the data set on HepG2; > 100 µM with HCT-116; > 100 µM in the data set with A549 [9]; 27 µM with MCF7; 90.8 µM in the data set with SiHa; 57.3 µM in the data set on PC-3.
With `COc1cc2nc(-c3cc(OC)c(OC)cc3OC)[nH]c2cc1C#Cc1ccc(Cl)cc1`, the IC50 in the data set on HepG2 was 19.4 µM; in the data set with HCT-116 it was 3.05 µM; in the data set on A549 [9], > 100 µM; with MCF7, 6.65 µM; with SiHa, > 100 µM; in the data set on PC-3, 10.5 µM.
Take `COc1cc2nc(-c3cc(OC)c(OC)cc3OC)[nH]c2cc1/C=C/C(=O)N1CCOCC1`: the IC50 is 87.4 µM with HepG2; 12 µM in the data set on HCT-116; > 100 µM in the data set with A549 [9]; 15.5 µM in the data set with MCF7; 6.57 µM in the data set with SiHa; 8.45 µM with PC-3.

In general, IC50 refers to the point on the concentration scale where inhibition reaches its midpoint.

(Values after ChEMBL document CHEMBL5365469, “Design, synthesis and antitumor effects of novel benzimidazole derivatives as PI3K inhibitors” (Bioorg Med Chem Lett, 2023).)
